We go through 9 compounds from US10039759B2, “Quinolines as FGFR kinase modulators” (priority 2011, dated 2018).

Where two headings read alike, the source gives them in different places. Some results are limits rather than exact numbers.

Experiment [1] addresses FGFR3 (h) (Homo sapiens, UniProt P22607). Briefly: FGFR3 (enzymatic assay), TR-FRET. The class given is biochemical. Conditions: 60 min, pIC50 = -log IC50 (M), average if tested multiple times. In general terms: Time-resolved FRET reads energy transfer from a long-lived donor to a nearby acceptor.
Experiment [2] addresses KDR (h) (Homo sapiens, UniProt P35968). Nature of the experiment: KDR (VEGFR2) (enzymatic assay), TR-FRET. It counts as biochemical. Conditions: 120 min, pIC50 = -log IC50 (M), average if tested multiple times. Here is the method:
KDR (VEGFR2) (Enzymatic Assay)
In a final reaction volume of 30 μL, KDR (h) (150 ng/ml) was incubated with 50 mM HEPES pH 7.5, 6 mM MnCl2, 1 mM DTT, 0.1 mM Na3VO4, 0.01% Triton-X-100, 500 nM Btn-Flt3 and 3 μM ATP in the presence of compound (1% DMSO final). After incubation for 120 minutes at room temperature the reaction was stopped with 2.27 nM EU-anti P-Tyr, 7 mM EDTA, 31.25 nM SA-XL-665 and 0.02% BSA which was present for 60 minutes at room temperature. Time-Resolved Fluorescence Resonance Energy Transfer (TR-FRET) signal (ex340 nm. Em 620 nm, em 655 nm) was measured afterwards and results are expressed in RFU (Relative Fluorescence Units). In this assay, the inhibitory effect of different compound concentrations (range 10 μM to 0.1 nM) was determined and used to calculate an IC50 (M) and pIC50 (−log IC50) value.

The target of experiment [3] is T1, Ba/F3-FGFR1-transfected cells (Homo sapiens, UniProt P11362, cells depend on it, form not given).
T1 construct: other: minus IL3; 24 hours, Alamar Blue
T1 sequence (P11362 whole entry, change not shown): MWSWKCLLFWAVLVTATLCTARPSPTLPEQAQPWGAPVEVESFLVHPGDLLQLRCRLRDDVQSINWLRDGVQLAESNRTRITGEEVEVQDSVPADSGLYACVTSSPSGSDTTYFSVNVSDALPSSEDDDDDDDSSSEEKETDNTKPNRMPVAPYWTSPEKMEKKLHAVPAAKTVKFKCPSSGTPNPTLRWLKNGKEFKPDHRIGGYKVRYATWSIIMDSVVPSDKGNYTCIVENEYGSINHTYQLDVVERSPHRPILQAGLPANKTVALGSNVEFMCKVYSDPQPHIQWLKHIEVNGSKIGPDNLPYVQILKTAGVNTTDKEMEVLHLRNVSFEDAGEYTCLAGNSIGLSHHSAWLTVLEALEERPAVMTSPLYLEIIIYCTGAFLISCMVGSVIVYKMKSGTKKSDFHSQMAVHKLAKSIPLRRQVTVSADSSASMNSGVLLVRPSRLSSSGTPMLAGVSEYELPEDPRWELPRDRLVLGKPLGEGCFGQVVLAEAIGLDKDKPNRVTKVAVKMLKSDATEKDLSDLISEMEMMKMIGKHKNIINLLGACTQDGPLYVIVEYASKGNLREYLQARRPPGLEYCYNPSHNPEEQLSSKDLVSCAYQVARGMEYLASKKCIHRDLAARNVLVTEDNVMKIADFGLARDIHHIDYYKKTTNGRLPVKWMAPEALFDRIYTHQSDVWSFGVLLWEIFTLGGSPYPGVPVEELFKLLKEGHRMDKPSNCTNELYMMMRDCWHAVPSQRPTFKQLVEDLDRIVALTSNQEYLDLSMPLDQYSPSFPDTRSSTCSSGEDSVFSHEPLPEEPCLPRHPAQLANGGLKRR
Briefly: Ba/F3-FGFR1 (minus IL3 or plus IL3) cellular proliferation assay, Alamar Blue. The class given is cell-based. Conditions: minus IL3, 24 hours. The protocol: Ba/F3-FGFR1 (Minus IL3 or Plus IL3) (Cellular Proliferation Assay)
(§1) In a 384 well plate, 100 nl of compound dilution in DMSO was sprayed before adding 50 μl cell culture medium (phenol red free RPMI-1640, 10% FBS, 2 mM L-Glutamine and 50 μg/ml Gentamycin) containing 20000 cells per well of Ba/F3-FGFR1-transfected cells. Cells were put in an incubator at 37° C. and 5% CO2. After 24 hours, 10 μl of Alamar Blue solution (0.5 mM K3Fe(CN)6, 0.5 mM K4Fe(CN)6, 0.15 mM Resazurin and 100 mM Phosphate Buffer) was added to the wells, incubated for 4 hours at 37° C. and 5% CO2 before RFU's (Relative Fluorescence Units) (ex. 540 nm., em. 590 nm.) were measured in a fluorescence plate reader.
(§2) In this assay, the inhibitory effect of different compound concentrations (range 10 μM to 0.1 nM) was determined and used to calculate an IC50 (M) and pIC50 (−log IC50) value. As a counterscreen the same experiment was performed in the presence of 10 ng/ml murine IL3.
Background: Resazurin is reduced to fluorescent resorufin, in cell work by metabolically active cells.

Experiment [4] deals with T2, Ba/F3-FGFR3-transfected cells (Homo sapiens, UniProt P22607, cells depend on it, form not given).
T2 construct: BAF3-FGFR3 (MIN IL3 Alamar Blue- pIC50); other: minus IL3; 24 hours, Alamar Blue
Nature of the experiment: Ba/F3-FGFR3 (minus IL3 or plus IL3) cellular proliferation assay, Alamar Blue. It counts as cell-based. Conditions: minus IL3; 24 hours, Alamar Blue. The protocol:
(§3) Ba/F3-FGFR3 (Minus IL3 or Plus IL3) (Cellular Proliferation Assay)
as §1, with “Ba/F3-FGFR3-transfected” for “Ba/F3-FGFR1-transfected”
as §2

In experiment [5] the target is Ba/F3-FGFR4-transfected cells (Homo sapiens, UniProt P22455). Nature of the experiment: Ba/F3-FGFR4 cellular proliferation assay, Alamar Blue. The class given is cell-based. Conditions: 24 hours. The protocol:
Ba/F3-FGFR4 (Cellular Proliferation Assay)
as §1, with “Ba/F3-FGFR4-transfected” for “Ba/F3-FGFR1-transfected”
In this assay, the inhibitory effect of different compound concentrations (range 10 μM to 0.1 nM) was determined and used to calculate an IC50 (M) and pIC50 (−log IC50) value.

For experiment [6], the target named is T3, Ba/F3-KDR-transfected cells (Homo sapiens, UniProt P35968, cells depend on it, form not given).
T3 construct: BAF3-KDR (MIN IL3 Alamar Blue pIC50); other: minus IL3; 24 hours, Alamar Blue
T3 sequence (P35968 whole entry, change not shown): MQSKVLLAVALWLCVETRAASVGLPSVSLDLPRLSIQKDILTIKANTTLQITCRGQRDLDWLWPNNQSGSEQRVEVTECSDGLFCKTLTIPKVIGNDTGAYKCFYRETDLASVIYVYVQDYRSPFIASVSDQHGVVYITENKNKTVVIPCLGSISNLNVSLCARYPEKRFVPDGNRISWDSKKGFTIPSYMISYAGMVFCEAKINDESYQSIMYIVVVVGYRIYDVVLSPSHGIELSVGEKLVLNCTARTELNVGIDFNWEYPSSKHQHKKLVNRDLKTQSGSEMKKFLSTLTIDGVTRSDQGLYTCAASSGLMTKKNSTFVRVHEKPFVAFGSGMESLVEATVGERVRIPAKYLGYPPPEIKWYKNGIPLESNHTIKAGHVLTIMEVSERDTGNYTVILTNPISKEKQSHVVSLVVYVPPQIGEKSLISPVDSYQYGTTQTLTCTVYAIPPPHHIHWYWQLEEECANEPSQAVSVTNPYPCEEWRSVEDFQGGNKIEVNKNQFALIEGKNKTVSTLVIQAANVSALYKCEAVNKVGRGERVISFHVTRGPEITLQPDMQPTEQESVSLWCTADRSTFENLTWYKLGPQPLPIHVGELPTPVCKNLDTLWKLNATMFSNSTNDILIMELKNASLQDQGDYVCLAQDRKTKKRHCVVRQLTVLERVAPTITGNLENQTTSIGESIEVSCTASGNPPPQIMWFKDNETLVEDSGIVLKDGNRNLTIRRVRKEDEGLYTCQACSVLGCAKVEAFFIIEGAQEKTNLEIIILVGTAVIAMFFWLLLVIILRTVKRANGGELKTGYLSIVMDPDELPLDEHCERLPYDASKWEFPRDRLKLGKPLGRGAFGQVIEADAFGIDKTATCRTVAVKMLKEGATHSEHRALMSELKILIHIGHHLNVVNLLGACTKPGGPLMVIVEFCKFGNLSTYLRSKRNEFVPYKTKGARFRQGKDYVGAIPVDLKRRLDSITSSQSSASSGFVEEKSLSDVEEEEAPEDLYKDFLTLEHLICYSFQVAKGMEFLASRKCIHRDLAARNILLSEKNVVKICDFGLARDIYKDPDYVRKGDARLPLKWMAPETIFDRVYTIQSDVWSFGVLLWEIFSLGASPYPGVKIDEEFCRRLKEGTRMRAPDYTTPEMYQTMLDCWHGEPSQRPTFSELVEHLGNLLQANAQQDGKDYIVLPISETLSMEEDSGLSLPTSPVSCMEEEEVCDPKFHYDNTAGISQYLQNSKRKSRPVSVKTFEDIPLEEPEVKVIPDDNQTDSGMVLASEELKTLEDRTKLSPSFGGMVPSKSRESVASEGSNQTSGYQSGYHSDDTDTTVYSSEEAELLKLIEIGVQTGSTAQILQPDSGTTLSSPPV
Nature of the experiment: Ba/F3-KDR (minus IL3 or plus IL3) cellular proliferation assay, Alamar Blue. It counts as cell-based. Conditions: minus IL3; 24 hours, Alamar Blue. The protocol: (§4) Ba/F3-KDR (Minus IL3 or Plus IL3) (Cellular Proliferation Assay)
as §1, with “Ba/F3-KDR-transfected” for “Ba/F3-FGFR1-transfected”
as §2

In experiment [7] the target is FGFR4 (h) (Homo sapiens, UniProt P22455). Briefly: FGFR4 (enzymatic assay), TR-FRET. The class given is biochemical. Conditions: FGFR 4 pIC50, 5 μM ATP, 60 min; pIC50 = -log IC50 (M); average if tested multiple times.
Experiment [8] has as its target FGFR2 (h) (Homo sapiens, UniProt P21802). Briefly: FGFR2 (enzymatic assay), TR-FRET. The class given is biochemical. Conditions: 60 min, pIC50 = -log IC50 (M), average if tested multiple times.
In experiment [9] the target is FGFR1 (h) (Homo sapiens, UniProt P11362). Briefly: FGFR1 (enzymatic assay), TR-FRET. The class given is biochemical. Conditions: FGFR 1 pIC50, 5 μM ATP, 60 min; pIC50 = -log IC50 (M); average if tested multiple times.
Sequence of FGFR1 (h) (P11362 22-822): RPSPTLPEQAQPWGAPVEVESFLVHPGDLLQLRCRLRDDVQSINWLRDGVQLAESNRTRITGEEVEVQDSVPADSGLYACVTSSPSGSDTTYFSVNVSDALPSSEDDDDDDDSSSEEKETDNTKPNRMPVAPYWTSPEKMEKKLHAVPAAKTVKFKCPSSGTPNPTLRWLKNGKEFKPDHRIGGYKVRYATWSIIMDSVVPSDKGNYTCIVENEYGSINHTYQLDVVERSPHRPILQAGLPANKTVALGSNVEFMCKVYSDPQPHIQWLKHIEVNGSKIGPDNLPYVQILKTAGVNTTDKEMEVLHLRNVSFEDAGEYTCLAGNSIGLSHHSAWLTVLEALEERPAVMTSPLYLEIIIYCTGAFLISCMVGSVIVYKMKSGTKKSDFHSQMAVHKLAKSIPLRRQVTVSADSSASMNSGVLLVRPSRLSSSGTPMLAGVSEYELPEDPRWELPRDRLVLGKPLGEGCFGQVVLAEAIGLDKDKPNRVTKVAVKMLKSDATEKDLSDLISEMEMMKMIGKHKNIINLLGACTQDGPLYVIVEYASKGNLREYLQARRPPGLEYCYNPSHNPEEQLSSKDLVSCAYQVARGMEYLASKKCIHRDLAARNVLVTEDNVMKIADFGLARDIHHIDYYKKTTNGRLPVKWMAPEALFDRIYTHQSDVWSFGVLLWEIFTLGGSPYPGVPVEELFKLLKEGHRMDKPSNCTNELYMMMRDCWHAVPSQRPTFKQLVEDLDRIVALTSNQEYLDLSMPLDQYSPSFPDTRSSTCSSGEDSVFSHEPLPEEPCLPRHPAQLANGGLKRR
For experiment [10], the system named is Ba/F3-FGFR3-transfected cells. Briefly: Ba/F3-FGFR3 (minus IL3 or plus IL3) cellular proliferation assay, Alamar Blue. It counts as cell-based. Conditions: plus IL3 (10 ng/ml murine IL3, counterscreen); 24 hours, Alamar Blue; read-out: BAF3-FGFR3 (PLUS IL3 Alamar Blue pIC50) (converted). Here is the method: as §3
as §1, with “Ba/F3-FGFR3-transfected” for “Ba/F3-FGFR1-transfected”
as §2

In experiment [11] the test system is Ba/F3-KDR-transfected cells. Briefly: Ba/F3-KDR (minus IL3 or plus IL3) cellular proliferation assay, Alamar Blue. The class given is cell-based. Conditions: plus IL3 (10 ng/ml murine IL3, counterscreen); 24 hours, Alamar Blue; read-out: BAF3-KDR (PLUS IL3 Alamar Blue pIC50) (converted). The protocol:
as §4
as §1, with “Ba/F3-KDR-transfected” for “Ba/F3-FGFR1-transfected”
as §2

Where [12] appears, read: 25 μM ATP, read-out: hFGFR 3 pIC50 (converted).
Setting [13] is: 3 μM ATP, read-out: VEGFR KDR pIC50 (converted).
Where [14] appears, read: 0.4 μM ATP, read-out: FGFR 2 pIC50 (converted).

Sequence of Ba/F3-FGFR4-transfected cells (P22455 whole entry, change not shown): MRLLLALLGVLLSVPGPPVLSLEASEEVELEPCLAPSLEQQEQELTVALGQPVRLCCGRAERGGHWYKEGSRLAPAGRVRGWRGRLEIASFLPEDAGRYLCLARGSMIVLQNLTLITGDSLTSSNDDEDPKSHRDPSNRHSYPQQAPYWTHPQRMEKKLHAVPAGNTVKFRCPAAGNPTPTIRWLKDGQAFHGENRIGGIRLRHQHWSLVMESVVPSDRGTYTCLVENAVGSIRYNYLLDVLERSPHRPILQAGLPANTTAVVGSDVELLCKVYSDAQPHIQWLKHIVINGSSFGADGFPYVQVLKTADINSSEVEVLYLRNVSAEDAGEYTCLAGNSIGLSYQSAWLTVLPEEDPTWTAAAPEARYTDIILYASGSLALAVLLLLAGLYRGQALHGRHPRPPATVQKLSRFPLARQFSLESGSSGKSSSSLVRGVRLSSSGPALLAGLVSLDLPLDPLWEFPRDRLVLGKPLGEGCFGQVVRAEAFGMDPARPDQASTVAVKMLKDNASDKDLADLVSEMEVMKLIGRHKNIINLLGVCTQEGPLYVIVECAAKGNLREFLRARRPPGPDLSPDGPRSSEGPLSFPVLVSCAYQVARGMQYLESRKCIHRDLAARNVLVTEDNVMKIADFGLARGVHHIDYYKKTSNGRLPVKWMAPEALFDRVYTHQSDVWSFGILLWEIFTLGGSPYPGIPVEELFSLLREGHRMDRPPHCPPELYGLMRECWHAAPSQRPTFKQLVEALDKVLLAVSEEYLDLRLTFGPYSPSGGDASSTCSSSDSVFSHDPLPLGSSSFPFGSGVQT
Sequence of FGFR3 (h) (P22607 23-806): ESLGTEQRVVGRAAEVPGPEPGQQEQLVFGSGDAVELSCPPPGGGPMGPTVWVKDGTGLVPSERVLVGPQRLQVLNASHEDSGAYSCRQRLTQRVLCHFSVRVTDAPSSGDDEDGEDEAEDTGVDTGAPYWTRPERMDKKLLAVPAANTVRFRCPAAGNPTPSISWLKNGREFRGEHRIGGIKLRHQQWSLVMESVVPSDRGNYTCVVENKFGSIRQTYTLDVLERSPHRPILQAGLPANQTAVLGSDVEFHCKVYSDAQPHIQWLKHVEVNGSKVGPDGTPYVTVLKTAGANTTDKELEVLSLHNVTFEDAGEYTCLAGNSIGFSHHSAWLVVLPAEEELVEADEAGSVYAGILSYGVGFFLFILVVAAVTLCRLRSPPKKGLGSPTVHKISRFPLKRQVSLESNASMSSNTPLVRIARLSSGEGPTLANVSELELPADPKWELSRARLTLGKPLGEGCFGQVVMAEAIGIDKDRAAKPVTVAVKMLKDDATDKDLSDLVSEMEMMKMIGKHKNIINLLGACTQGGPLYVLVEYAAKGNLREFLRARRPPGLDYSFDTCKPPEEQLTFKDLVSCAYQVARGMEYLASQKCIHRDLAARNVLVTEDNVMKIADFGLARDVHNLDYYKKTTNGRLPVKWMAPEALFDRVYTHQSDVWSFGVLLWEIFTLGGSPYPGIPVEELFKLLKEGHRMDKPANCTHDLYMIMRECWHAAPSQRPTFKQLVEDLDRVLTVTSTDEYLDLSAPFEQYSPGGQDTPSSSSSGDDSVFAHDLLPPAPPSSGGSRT

As to `COc1cc(OC)cc(C(=O)c2ccc3ncc(-c4cnn(C)c4)cc3c2)c1` [Compound 31], the IC50 was 1.86e-08 M in [1] (setting [12]), 1.58e-07 M in [2] (setting [13]), 2.57e-07 M in experiment [7] and 3.09e-08 M in experiment [8] (setting [14]). In addition, the “BAF3-FGFR1 (MIN IL3 pIC50)” value in experiment [3] amounted to 5.65. For the same compound, the “BAF3-FGFR3 (MIN IL3 Alamar Blue- pIC50)” value in [4] is listed as 5.46. In experiment [5], the “BAF3-FGFR 4 (pIC50)” value is listed as 5.12. Moreover, in [6], the “BAF3-KDR (MIN IL3 Alamar Blue pIC50)” value is listed as below 5.

Take `COc1cc(OC)cc(N(Cc2ncc[nH]2)c2ccc3ncc(N4CCOCC4)cc3c2)c1` [Compound 55]: the IC50 is 2.04e-08 M in [1] (setting [12]); 9.12e-08 M in [9]; above 1e-06 M in experiment [2] (setting [13]); 1.32e-07 M in experiment [7]; 2e-08 M in experiment [8] (setting [14]). Further, the “BAF3-FGFR1 (MIN IL3 pIC50)” value in [3] amounted to 5.64. The “BAF3-FGFR3 (MIN IL3 Alamar Blue- pIC50)” value in experiment [4] is 5.77. In addition, the “BAF3-FGFR 4 (pIC50)” value in experiment [5] stood at 5.37. Besides, the “BAF3-KDR (MIN IL3 Alamar Blue pIC50)” value in [6] is below 5.

On to `COc1cc(OC)cc(C(CCO)c2ccc3ncc(-c4cnn(C)c4)cc3c2)c1` (single isomer, unassigned) [Compound 36], for which the IC50 in experiment [1] (setting [12]), in experiment [2] (setting [13]), in experiment [7] and in experiment [8] (setting [14]) was above 1e-06 M in each case.

For `COc1cc(OC)cc(/C(=C\C#N)c2ccc3ncc(-c4cnn(C)c4)cc3c2)c1` [Compound 30], the IC50 in experiment [1] (setting [12]) is 2.19e-08 M; in experiment [2] (setting [13]) it was 3.31e-07 M; in experiment [7], 3.02e-07 M; in experiment [8] (setting [14]) it was 3.47e-08 M. Moreover, the “BAF3-FGFR1 (MIN IL3 pIC50)” value in experiment [3] was 6.03. The “BAF3-FGFR3 (MIN IL3 Alamar Blue- pIC50)” value in experiment [4] amounted to 5.89. Moreover, the “BAF3-FGFR 4 (pIC50)” value in [5] was 5.25. In [6], the “BAF3-KDR (MIN IL3 Alamar Blue pIC50)” value was determined as 5.55.

In the case of `COc1cc(OC)cc(N(CCNC(C)C)c2ccc3ncc(-c4cnn(CCO)c4)cc3c2)c1` [Compound 13], the IC50 in experiment [1] (setting [12]) is 4.9e-09 M; in experiment [9], 2.51e-09 M; in [2] (setting [13]), 1.29e-07 M; in experiment [7], 8.71e-09 M; in experiment [8] (setting [14]), 6.61e-09 M. Also, the “BAF3-FGFR1 (MIN IL3 pIC50)” value in [3] came to 7.23. In addition, the “BAF3-FGFR3 (MIN IL3 Alamar Blue- pIC50)” value in experiment [4] turned out to be 7. Further, the “BAF3-FGFR 4 (pIC50)” value in experiment [5] turned out to be 6.81. Besides, the “BAF3-KDR (MIN IL3 Alamar Blue pIC50)” value in experiment [6] was found to be 5.57.

Turning to `COc1cc(OC)cc(N(Cc2ncc[nH]2)c2ccc3ncc(C4=CCNCC4)cc3c2)c1` [Compound 46], the IC50 in experiment [1] (hFGFR 3 pIC50, 25 μM ATP) was 2.45e-09 M; in [9], 6.31e-09 M; in [2] (VEGFR KDR pIC50, 3 μM ATP) it was 1.02e-06 M; in [7] it was 1.7e-08 M; in experiment [8] (FGFR 2 pIC50, 0.4 μM ATP), 3.63e-09 M. Also, the “BAF3-FGFR1 (MIN IL3 pIC50)” value in experiment [3] was 5.89. The “BAF3-FGFR3 (MIN IL3 Alamar Blue- pIC50)” value in experiment [4] is 5.68. Also, the “BAF3-FGFR 4 (pIC50)” value in [5] was 5.28. The “BAF3-KDR (MIN IL3 Alamar Blue pIC50)” value in experiment [6] is on record as below 5.

In the case of `COc1cc(OC)cc(N(Cc2ncc[nH]2)c2ccc3ncc(-c4ccn(C)c4)cc3c2)c1` [Compound 62], the IC50 in experiment [1] (setting [12]) is 1.45e-09 M; in experiment [2] (setting [13]), 2.57e-07 M; in experiment [7] it was 3.31e-09 M; in experiment [8] (setting [14]) it was 2.09e-09 M. Further, the “BAF3-FGFR1 (MIN IL3 pIC50)” value in experiment [3] is recorded as 6.63. The “BAF3-FGFR3 (MIN IL3 Alamar Blue- pIC50)” value in [4] is listed as 6.75. In experiment [5], the “BAF3-FGFR 4 (pIC50)” value was 6.24. Besides, the “BAF3-KDR (MIN IL3 Alamar Blue pIC50)” value in [6] is below 5.

For the compound `COc1cc(OC)cc(C(CCNC(C)C)c2ccc3ncc(-c4cnn(C)c4)cc3c2)c1` (stereo not drawn) [Compound 41], the IC50 in experiment [1] (setting [12]) was 3.89e-08 M; in [2] (setting [13]) it was above 1e-06 M; in experiment [10], above 10 µM; in experiment [11], above 10 µM; in experiment [7], 1.66e-07 M; in experiment [8] (setting [14]) it was 2.04e-08 M. Besides, the “BAF3-FGFR1 (MIN IL3 pIC50)” value in experiment [3] was 6.43. The “BAF3-FGFR3 (MIN IL3 Alamar Blue- pIC50)” value in [4] is 6.30. Also, in experiment [5], the “BAF3-FGFR 4 (pIC50)” value is reported as 5.78. Also, the “BAF3-KDR (MIN IL3 Alamar Blue pIC50)” value in [6] is recorded as below 5.

Take `COc1cc(OC)cc(N(CC2CCC(=O)N2)c2ccc3ncc(-c4cnn(C)c4)cc3c2)c1` (stereo not drawn) [Compound 44]: the IC50 in experiment [1] (setting [12]) was 1.7e-09 M; in experiment [2] (setting [13]), 5.25e-08 M; in experiment [10], above 10 µM; in experiment [11] it was above 10 µM; in [7], around 1.35e-08 M; in experiment [8] (setting [14]), 3.24e-09 M. The “BAF3-FGFR1 (MIN IL3 pIC50)” value in experiment [3] was determined as 5.65. Besides, the “BAF3-FGFR3 (MIN IL3 Alamar Blue- pIC50)” value in [4] is reported as 6.61. Besides, the “BAF3-FGFR 4 (pIC50)” value in [5] stood at 6.00. For the same compound, the “BAF3-KDR (MIN IL3 Alamar Blue pIC50)” value in experiment [6] is on record as 5.18.
